Results taken from patent US20100016352A1, “COMPOUNDS AND METHODS FOR TREATING ESTROGEN RECEPTOR-RELATED DISEASES” (priority 2008, published 2010).

Assays:
[1] = test system: Human Breast Cancer BCAP-37 Cells xenografts; assay: In vivo efficacy in inhibiting growth of human breast cancer BCAP-37 cells xenografts in nude mice; settings: Mus musculus, Bcap37, po, 360 h; female nude mice, BCAP-37 xenograft, 35 mg/kg fed once every day for 15 days, tumor weight vs olive oil negative control; read-out: Inhibition rate of tumor growth (%)
Protocol: The In Vivo Efficacy in Inhibiting Growth of Human Breast Cancer BCAP-37 Cells Xenografts in Nude Mice Model
Nude mice with breast cancer xenografts are treated with the test compounds 5, 6, 8, 14, 22, 36 and 38 to test their effect on inhibiting tumor growth. Tumor tissues are taken from nude mice bearing BCAP-37 breast cancer and cut into small pieces. Several pieces of the tumor tissues are implanted into the armpit under the right front limb of female nude mice. After the implantation, the mice are fed with E2β solution once every day at the dosage of 7 μg per mouse for 6 days to stimulate tumor growth in the receiving mice. Starting on the seventh day, the mice are fed with the test compounds at the dosage of 35 mg/kg. Tamoxifen is used as a positive control. Olive oil is used as a negative control. The test compounds are prepared as an olive oil solution (20 mg/mL). The mice are given the test compounds and Tamoxifen at the dosage of 35 mg/kg or olive oil once every day for 15 days. Then the mice are sacrificed and the tumor tissues are dissected from the mice and weighed. The tumor growth inhibition rate is a percentage calculated using the formula: tumor growth inhibition rate=(average weight of the tumor in the negative control−average weight of the tumor treated with test compound)/average weight of the tumor in the negative control.

[2] = test system: MCF7 cells; assay: Cell apoptosis assay in ER-positive breast cancer MCF7 cells (cell number after treatment); format: cell-based, human; settings: 10 days
Source text: Cell Apoptosis Assay in ER-Positive Breast Cancer MCF7 Cells
MCF7 cell line is a breast cancer cell line that strongly expresses ER-α66, ER-α46 and ER-α36 (Relevance of breast cancer cell lines as models for breast tumours: an update. Marc Lacroix, Guy Leclercq, Breast Cancer Research and Treatment (2004) 83, 249-289; Wang et al., Proc. Natl. Acad. Sci. U.S.A. 103:9063-9068 (2006)). MCF7 cells obtained from ATCC are maintained in DMEM/F12 medium (Invitrogen) supplemented with 10% fetal calf serum at 37° C. in a 5% CO2 atmosphere. The MCF7 cells are treated with the test compounds 6, 8, 14, 22, 27, 29, 30, 31, 36 and 38 at concentrations from 1 μM to 25 μM to test the effect of these compounds on MCF7 cell growth for 10 days. The control assay is conducted with MCF7 cells under the same assay conditions except that no test compound is added. Treated cells are examined under a Nikon TS100 inverted microscope and photographed for morphological changes.

[3] = MCF-7, tested compound concentration 1 μM
[4] = MCF-7, tested compound concentration 5 μM
[5] = MCF-7, tested compound concentration 10 μM
[6] = MCF-7, tested compound concentration 15 μM
[7] = MCF-7, tested compound concentration 25 μM

Row | Compound | inhibition in vivo at 35 mg/kg [1] | Cell Number (×10^4) [2, 3] | Cell Number (×10^4) [2, 4] | Cell Number (×10^4) [2, 5] | Cell Number (×10^4) [2, 6] | Cell Number (×10^4) [2, 7]
1 | COc1ccc(-c2oc3c(CCC(C)(C)O)c(O)cc(O)c3c(=O)c2OC)cc1OC [Compound 6, 5,7-dihydroxy-8-(3-hydroxy-3-methylbutyl)-3-methoxy-2-(3,4-dimethoxyphenyl)-4H-chromen-4-one] | 44% | 18.35 ×10^4 | 8.97 ×10^4 | 3.95 ×10^4 | 3.9 ×10^4 | 3.87 ×10^4
2 | CC(C)=CCc1c(O)ccc2c(=O)cc(-c3ccncc3)oc12 [Compound 36, 7-hydroxy-8-(3-methylbut-2-enyl)-2-(pyridin-4-yl)-4H-chromen-4-one] | 56% | 25.6 ×10^4 | 14.8 ×10^4 | 10.65 ×10^4 | 3.65 ×10^4 | 1.4 ×10^4
3 | COc1c(-c2ccc(Cl)cc2)oc2c(CC=C(C)C)c(O)cc(O)c2c1=O [Compound 14, 2-(4-chlorophenyl)-5,7-dihydroxy-3-methoxy-8-(3-methylbut-2-enyl)-4H-chromen-4-one] | 37% | 30.05 ×10^4 | 14.54 ×10^4 | 2.51 ×10^4 | 0 ×10^4 | 0 ×10^4
4 | COc1ccc(-c2oc3c(CCC(C)(C)N)c(O)cc(O)c3c(=O)c2O)cc1 [Compound 8, 8-(3-amino-3-methylbutyl)-3,5,7-trihydroxy-2-(4-methoxyphenyl)-4H-chromen-4-one] | 62% | 28.75 ×10^4 | 15.35 ×10^4 | 10.1 ×10^4 | 6.45 ×10^4 | 0.25 ×10^4
5 | COc1ccc(-c2oc3c(CC=C(C)C)c(O)cc(O)c3c(=O)c2OC)cc1OC [Compound 5, 5,7-dihydroxy-3-methoxy-2-(3,4-dimethoxyphenyl)-8-(3-methylbut-2-enyl)-4H-chromen-4-one] | 26% |  |  |  |  | 
6 | CC(C)=CCc1c(O)ccc2c(=O)cc(-c3ccc(F)cc3)oc12 [Compound 31, 2-(4-fluorophenyl)-7-hydroxy-8-(3-methylbut-2-enyl)-4H-chromen-4-one] |  | 24.0 ×10^4 | 25.5 ×10^4 | 27.25 ×10^4 | 9.6 ×10^4 | 7.5 ×10^4
7 | COc1ccc(-c2cc(=O)c3c(O)cc(O)c(CC=C(C)C)c3o2)cc1Cl [Compound 27, 2-(3-chloro-4-methoxyphenyl)-5,7-dihydroxy-8-(3-methylbut-2-enyl)-4H-chromen-4-one] |  | 59.4 ×10^4 | 45.2 ×10^4 | 5.4 ×10^4 | 1.05 ×10^4 | 0 ×10^4
8 | CC(C)=CCc1c(O)cc(O)c2c(=O)cc(-c3ccc(Cl)cc3)oc12 [Compound 22, 2-(4-chlorophenyl)-5,7-dihydroxy-8-(3-methylbut-2-enyl)-4H-chromen-4-one] | 66% | 39.0 ×10^4 | 21.6 ×10^4 | 15.6 ×10^4 | 4.2 ×10^4 | 0.6 ×10^4
9 | CC(C)=CCc1c(O)ccc2c(=O)cc(-c3ccc(C(F)(F)F)cc3)oc12 [Compound 29, 2-(4-(trifluoromethyl)phenyl)-7-hydroxy-8-(3-methylbut-2-enyl)-4H-chromen-4-one] |  | 27.9 ×10^4 | 30.1 ×10^4 | 24.3 ×10^4 | 23.4 ×10^4 | 12.3 ×10^4
10 | CC(C)=CCc1c(O)ccc2c(=O)cc(-c3ccc(C)cc3)oc12 [Compound 30, 7-hydroxy-8-(3-methylbut-2-enyl)-2-(4-methylphenyl)-4H-chromen-4-one] |  | 21.1 ×10^4 | 10.8 ×10^4 | 5.8 ×10^4 | 3.6 ×10^4 | 1.5 ×10^4
11 | CC/C(=C(\c1ccccc1)c1ccc(OCCN(C)C)cc1)c1ccccc1 [Tamoxifen, reference compound] | 40 to 50% |  |  |  |  | 
12 | CC(C)=CCc1c(O)ccc2c(=O)cc(-c3cccnc3)oc12 [Compound 38, 7-hydroxy-8-(3-methylbut-2-enyl)-2-(pyridin-3-yl)-4H-chromen-4-one] | 24% | 27.8 ×10^4 | 19.66 ×10^4 | 13.8 ×10^4 | 10.1 ×10^4 | 2.6 ×10^4
